Assay results as given in patent publication US20260265305A1, “POLYPEPTIDE DERIVATIVE FOR ORAL DELIVERY” (Hangzhou Sciwind Biosciences Co., Ltd., priority 2023, published 2026).
Numbered stars: 1 amine (or outer) side, 2 acyl side, 3 side chain; on linkers, the order of the positions; unused ones are H or OH. Square brackets hold non-standard residues; d marks the D form. Peptide text beside a SMILES is read from it. * marks the point of attachment. C20 diacid = O=C(O)CCCCCCCCCCCCCCCCCCC(=O)*; C18 diacid = O=C(O)CCCCCCCCCCCCCCCCC(=O)*; γGlu = O=C(O)[C@H](CCC(=O)[*:2])N[*:1]; Trx = NC[C@H]1CC[C@H](C(=O)O)CC1; AEEA = NCCOCCOCC(=O)O; Inp = O=C(O)C1CCNCC1

Experiments:
amylin receptor (hAMY3R) = target: T1, amylin receptor (hAMY3R) (Homo sapiens, UniProt O60896+P30988); test: Amylin receptor agonism testing, CRE-luciferase assay in stably transfected CHO-K1/Ga15/AMY3 cells; assay type: cell-based; settings: for Fold change in activity against hAMY3R: relative to D1 as benchmark
T1 construct: host or cells: CHO-K1/Ga15/AMY3 cells, further stably transfected with a CRE-luciferase plasmid
T1 sequence (P30988 25-474): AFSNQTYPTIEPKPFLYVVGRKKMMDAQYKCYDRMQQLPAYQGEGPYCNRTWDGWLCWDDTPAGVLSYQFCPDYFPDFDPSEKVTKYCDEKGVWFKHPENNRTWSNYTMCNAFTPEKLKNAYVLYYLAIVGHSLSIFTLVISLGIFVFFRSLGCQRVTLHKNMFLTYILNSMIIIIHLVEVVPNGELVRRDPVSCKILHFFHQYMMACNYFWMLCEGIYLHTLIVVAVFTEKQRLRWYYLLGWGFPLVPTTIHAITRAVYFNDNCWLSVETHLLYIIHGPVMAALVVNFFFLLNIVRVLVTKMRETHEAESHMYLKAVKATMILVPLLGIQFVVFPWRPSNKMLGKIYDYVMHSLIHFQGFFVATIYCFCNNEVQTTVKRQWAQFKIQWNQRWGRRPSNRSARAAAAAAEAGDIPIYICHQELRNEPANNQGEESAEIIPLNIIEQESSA
T1 sequence (O60896 24-148): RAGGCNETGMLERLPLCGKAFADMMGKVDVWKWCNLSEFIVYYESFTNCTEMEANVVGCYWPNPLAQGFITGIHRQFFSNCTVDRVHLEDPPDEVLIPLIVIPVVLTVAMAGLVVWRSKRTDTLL
Text: The objective of this assay is to test the potency of the polypeptide derivatives in the present application on amylin and calcitonin receptors in vitro using a luciferase assay.
Using the standard protocol for construction of an amylin receptor/CRE-luc cell line, CHO-K1/Ga15/AMY3 cells (purchased from GenScript, with the calcitonin receptor and the receptor activity modifying peptide (RAMP) constructed already) were transfected with a plasmid containing a luciferase expression cassette driven by multiple copies of cAMP response elements (CREs). The cells were cultured in an F12 medium containing 200 ug/mL Zeocin, 2 ug/mL puromycin, 100 ug/mL hygromycin, and 400 ug/mL G418 to afford a stably transfected amylin receptor/CRE-luc cell line.
To each well of a white 96-well plate was added 50 μL of the tested sample solution at a respective concentration.
The stably transfected amylin receptor/CRE-luc CHO cells were resuspended in the growth medium at a certain density, and 50 μL of the cell suspension was added at a density of about 20,000 cells per well to the white 96-well plate containing the tested sample solution. After incubation of 24 hours at 37° C. and 5% CO2, 100 μL of a Luciferase substrate was added to each well, incubated for 3 minutes, and finally was tested for luminescence on SpectraMax L (Molecular Devices) with the software SoftMax Pro 7.0.3 GxP. A standard curve was plotted using the fluorescent intensities for calculation of EC50.

[1] = target: T2, calcitonin receptor (hCTR) (Homo sapiens, UniProt P30988); test: Calcitonin receptor agonism, CRE-luciferase assay in stably transfected CHO-K1/CALCR/Ga15 cells; assay type: cell-based; settings: for EC50: incubation of 24 hours, Table 4, read-out: EC50, activity against the calcitonin receptor in cells; for Fold change in activity against hCTR: relative to D1 as benchmark
T2 construct: host or cells: CHO-K1/CALCR/Ga15 cells, further stably transfected with a CRE-luciferase plasmid
T2 sequence (P30988 25-474): T1 sequence (P30988 25-474)

[2] = Heat accelerated stability assay of polypeptide solutions (40° C., pH about 7.4), reversed phase chromatography; assay type: physicochemical; settings: 40° C.; for Concentration change on 7 d / Concentration change on 26 d: pH about 7.4, 1 mg/mL; for Concentration change on 7 d / Purity change on 7 d: Day 7; for Concentration change on 26 d / Purity change on 26 d: Day 26; for Purity change on 7 d / Purity change on 26 d: reversed phase chromatography 214 nm; for Purity change on 7 d: purity on 7 d − purity on 0 d; for Purity change on 26 d: purity on 26 d − purity on 0 d
Outline: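 Polypeptide derivative lyophilisate (1 mg/mL) with sodium dihydrogen phosphate (1.42 mg/mL) in water, pH about 7.4, sterile-filtered, vialed and held at 40° C; sampled on days 7 and 26. After centrifugation, concentration and purity (target/total peak area) by C18 RP-HPLC, TFA/ACN gradient, 280 and 214 nm.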

[3] = Animal study: weight change and accumulated food intake in SD rats after subcutaneous dosing; assay type: in vivo, SD (Sprague Dawley) rats; settings: 10 nmol/kg subcutaneous
Text: SD (Sprague Dawley) rats weighing 200-250 g were used for this study. The rats were received at least 10-14 days before the study began such that they could accommodate to the experimental environment. After arrival, they were exposed to a reversed light/dark cycle (i.e., lights switched off in daytime and on in nighttime) for two weeks and were individually housed for the first week so as to ensure high data accuracy and test sensitivity. Throughout the acclimation and experiment period, the rats had free access to food and water. 5-8 rats were assigned to each testing group for the derivatives and were subcutaneously administered the derivatives at a dose of 10 nmol/kg or a vehicle (20 mM phosphate buffer, PB, pH 7.0), and the dosing timepoint was recorded for each group. After dosing, the rats were put back into cages where they were housed and could have access to food and water. Food consumption and weight change of the rats were recorded online or manually every 24 hours. Percent of weight change=(BWTn−BWT0)/BWT0*100%, wherein BW represented the value of body weight, and T0 and Tn represented the time point of dosing and n hours post dose respectively. Dots in the figures were represented utilizing mean±standard error of the mean (SEM).

Fold change in activity against hAMY3R (amylin receptor (hAMY3R)) | increase in the ratio of activity against the amylin receptor to agonistic activity against the calcitonin receptor (amylin receptor (hAMY3R); relative to the benchmark D1) [fold] | EC50 [1] [nM] | Fold change in activity against hCTR [1] | Concentration change on 7 d [2] [%] | Concentration change on 26 d [2] [%] | Purity change on 7 d [2] | Purity change on 26 d [2] | EC50 (amylin receptor (hAMY3R); incubation of 24 hours, Table 3, read-out: EC50, activity against the amylin receptor in cells) [nM] | Structure (SMILES) | effect on body weight of SD rats ([3]; FIGS. 1 and 3) | effect on accumulated food intake of SD rats ([3]; FIGS. 2 and 4)
0.571 | 1.7 | 0.259 | 0.332 | −1.927 | −5.985 | −1% | −3.9% | – | CC(C)C[C@H](NC(=O)[C@H](CCCNC(=N)N)NC(=O)CNC(=O)[C@H](CC(C)C)NC(=O)[C@@H](NC(=O)[C@H](C)NC(=O)[C@@H](NC(=O)[C@H](CO)NC(=O)[C@H](CC(C)C)NC(=O)[C@H](CCC(N)=O)NC(=O)[C@H](CO)NC(=O)[C@H](C)NC(=O)C1CCN(C(=O)CCCCCCCCCCCCCCCCC(=O)O)CC1)[C@@H](C)O)C(C)C)C(=O)N[C@@H](CO)C(=O)N[C@@H](CC(=O)O)C(=O)N[C@@H](CCC(=O)O)C(=O)N[C@@H](CC(C)C)C(=O)N[C@@H](Cc1c[nH]cn1)C(=O)N[C@@H](CCCNC(=N)N)C(=O)N[C@@H](CC(C)C)C(=O)N[C@@H](CCC(N)=O)C(=O)N[C@@H](CC(=O)O)C(=O)N[C@@H](Cc1ccc(O)cc1)C(=O)N1CCC[C@H]1C(=O)N[C@@H](CCCNC(=N)N)C(=O)N[C@H](C(=O)N[C@@H](CC(=O)O)C(=O)N[C@H](C(=O)NCC(=O)N[C@@H](CO)C(=O)NCC(=O)N[C@@H](CO)C(=O)N1CCC[C@H]1C(N)=O)C(C)C)[C@@H](C)O [M17] ({C18 diacid-Inp}-ASQLSTAVLGRLSDELHRLQDYPRTDVGSGSP-NH2) | – | –
0.439 | – | 0.376 | 0.229 | −2.883 | −3.036 | 3.42% | 2.18% | – | CC(C)C[C@H](NC(=O)[C@H](CCCNC(=N)N)NC(=O)CNC(=O)[C@H](CC(C)C)NC(=O)[C@@H](NC(=O)[C@H](C)NC(=O)[C@@H](NC(=O)[C@H](CO)NC(=O)[C@H](CC(C)C)NC(=O)[C@H](CCC(N)=O)NC(=O)[C@H](CO)NC(=O)[C@H](C)NC(=O)C1CCN(C(=O)CCCCCCCCCCCCCCCCCCC(=O)O)CC1)[C@@H](C)O)C(C)C)C(=O)N[C@@H](CO)C(=O)N[C@@H](CC(=O)O)C(=O)N[C@@H](CCC(=O)O)C(=O)N[C@@H](CC(C)C)C(=O)N[C@@H](Cc1c[nH]cn1)C(=O)N[C@@H](CCCNC(=N)N)C(=O)N[C@@H](CC(C)C)C(=O)N[C@@H](CCC(N)=O)C(=O)N[C@@H](CC(=O)O)C(=O)N[C@@H](Cc1ccc(O)cc1)C(=O)N1CCC[C@H]1C(=O)N[C@@H](CCCNC(=N)N)C(=O)N[C@H](C(=O)N[C@@H](CC(=O)O)C(=O)N[C@H](C(=O)NCC(=O)N[C@@H](CO)C(=O)NCC(=O)N[C@@H](CO)C(=O)N1CCC[C@H]1C(N)=O)C(C)C)[C@@H](C)O [M16] ({C20 diacid-Inp}-ASQLSTAVLGRLSDELHRLQDYPRTDVGSGSP-NH2) | – | –
2.118 | – | 0.028 | 3.071 | – | −1.865 | 1.64% | No change | – | CC(C)C[C@H](NC(=O)[C@H](CCCNC(=N)N)NC(=O)CNC(=O)[C@H](CC(C)C)NC(=O)[C@@H](NC(=O)[C@H](C)NC(=O)[C@@H](NC(=O)[C@H](CO)NC(=O)[C@H](CC(C)C)NC(=O)[C@H](CCC(N)=O)NC(=O)[C@H](CO)NC(=O)[C@H](C)NC(=O)CC[C@H](NC(=O)CCCCCCCCCCCCCCCCCCC(=O)O)C(=O)O)[C@@H](C)O)C(C)C)C(=O)N[C@@H](CO)C(=O)N[C@@H](CC(=O)O)C(=O)N[C@@H](CCC(=O)O)C(=O)N[C@@H](CC(C)C)C(=O)N[C@@H](Cc1c[nH]cn1)C(=O)N[C@@H](CCCNC(=N)N)C(=O)N[C@@H](CC(C)C)C(=O)N[C@@H](CCC(N)=O)C(=O)N[C@@H](CC(=O)O)C(=O)N[C@@H](Cc1ccc(O)cc1)C(=O)N1CCC[C@H]1C(=O)N[C@@H](CCCNC(=N)N)C(=O)N[C@H](C(=O)N[C@@H](CC(=O)O)C(=O)N[C@H](C(=O)NCC(=O)N[C@@H](CO)C(=O)NCC(=O)N[C@@H](CO)C(=O)N1CCC[C@H]1C(N)=O)C(C)C)[C@@H](C)O [M6] ({C20 diacid-γGlu}-ASQLSTAVLGRLSDELHRLQDYPRTDVGSGSP-NH2) | – | –
0.079 | – | – | 0.147 | −3.464 | −8.377 | No change | −1.77% | – | CC(C)C[C@H](NC(=O)[C@H](CCCNC(=N)N)NC(=O)CNC(=O)[C@H](CC(C)C)NC(=O)[C@@H](NC(=O)[C@H](C)NC(=O)[C@@H](NC(=O)[C@H](CO)NC(=O)[C@H](CC(C)C)NC(=O)[C@H](CCC(N)=O)NC(=O)[C@H](CO)NC(=O)[C@H](C)NC(=O)[C@H]1CC[C@H](CNC(=O)CCCCCCCCCCCCCCCCCCC(=O)O)CC1)[C@@H](C)O)C(C)C)C(=O)N[C@@H](CO)C(=O)N[C@@H](CC(=O)O)C(=O)N[C@@H](CCC(=O)O)C(=O)N[C@@H](CC(C)C)C(=O)N[C@@H](Cc1c[nH]cn1)C(=O)N[C@@H](CCCNC(=N)N)C(=O)N[C@@H](CC(C)C)C(=O)N[C@@H](CCC(N)=O)C(=O)N[C@@H](CC(=O)O)C(=O)N[C@@H](Cc1ccc(O)cc1)C(=O)N1CCC[C@H]1C(=O)N[C@@H](CCCNC(=N)N)C(=O)N[C@H](C(=O)N[C@@H](CC(=O)O)C(=O)N[C@H](C(=O)NCC(=O)N[C@@H](CO)C(=O)NCC(=O)N[C@@H](CO)C(=O)N1CCC[C@H]1C(N)=O)C(C)C)[C@@H](C)O [M14] ({C20 diacid-Trx}-ASQLSTAVLGRLSDELHRLQDYPRTDVGSGSP-NH2) | – | –
– | – | – | – | – | −7.782 | No change | nearly no noticeable change in purity | 0.017 | CC(C)C[C@H](NC(=O)[C@H](CCCNC(=N)N)NC(=O)CNC(=O)[C@H](CC(C)C)NC(=O)[C@@H](NC(=O)[C@H](C)NC(=O)[C@@H](NC(=O)[C@H](CO)NC(=O)[C@H](CC(C)C)NC(=O)[C@H](CCC(N)=O)NC(=O)[C@H](CO)NC(=O)[C@H](C)NC(=O)COCCOCCNC(=O)COCCOCCNC(=O)[C@H](CCC(=O)O)NC(=O)CCCCCCCCCCCCCCCCCCC(=O)O)[C@@H](C)O)C(C)C)C(=O)N[C@@H](CO)C(=O)N[C@@H](CC(=O)O)C(=O)N[C@@H](CCC(=O)O)C(=O)N[C@@H](CC(C)C)C(=O)N[C@@H](Cc1c[nH]cn1)C(=O)N[C@@H](CCCNC(=N)N)C(=O)N[C@@H](CC(C)C)C(=O)N[C@@H](CCC(N)=O)C(=O)N[C@@H](CC(=O)O)C(=O)N[C@@H](Cc1ccc(O)cc1)C(=O)N1CCC[C@H]1C(=O)N[C@@H](CCCNC(=N)N)C(=O)N[C@H](C(=O)N[C@@H](CC(=O)O)C(=O)N[C@H](C(=O)NCC(=O)N[C@@H](CO)C(=O)NCC(=O)N[C@@H](CO)C(=O)N1CCC[C@H]1C(N)=O)C(C)C)[C@@H](C)O [M23] ({C20 diacid}-E[AEEA][AEEA]ASQLSTAVLGRLSDELHRLQDYPRTDVGSGSP-NH2) | apparently further reduced | apparently further reduced
